This experiment addresses Mtb ATP synthase (Mycobacterium tuberculosis, UniProt P9WPS1+P9WPV7). As to the kind of experiment: biochemical. Type of experiment: binding.

SMILES strings stand for the structures.

Consider `COc1nc2ccc(Br)cc2cc1[C@@H](c1ccccc1)[C@@](O)(CCN(C)C)c1cccc2ccccc12` [bedaquiline], for which the Kd came out at 36.5 µM. That is a double-digit micromolar value.

The values are drawn from US20240360459A1 (Nankai University, priority 2023, published 2024).
